Assay results: patent US20080009418A1, “Selective Inhibitors” (Alchemia LTD., priority 2004, published 2008)

Key:
Human δ-opioid (DOP) = molecular target: T1, Human δ-opioid (DOP) (Homo sapiens, UniProt P41143); experiment: Radioligand binding, human δ-opioid (DOP) membranes, FlashPlate, [3H]-Bremazocine; conditions: compound at 10 μM; [3H]-Bremazocine
T1 construct: purchased Perkin Elmer Biosignal
In short: (§1)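 Cloned human receptor membranes were coated onto FlashPlate wells and incubated with radioligand and compound (added from a 0.5 mM DMSO daughter plate) for 1 hour at room temperature in the dark. Scintillation counting gave percent inhibition, with DMSO defining total and reference ligand defining non-specific binding.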

Human κ-Opioid (KOP) = molecular target: T2, Human κ-Opioid (KOP) (Homo sapiens, UniProt P41145); experiment: Radioligand binding, human κ-opioid (KOP) membranes, filtration, [3H]-Diprenorphine; conditions: compound at 10 μM; [3H]-Diprenorphine
T2 construct: purchased Perkin Elmer Biosignal
T2 sequence (P41145 whole entry): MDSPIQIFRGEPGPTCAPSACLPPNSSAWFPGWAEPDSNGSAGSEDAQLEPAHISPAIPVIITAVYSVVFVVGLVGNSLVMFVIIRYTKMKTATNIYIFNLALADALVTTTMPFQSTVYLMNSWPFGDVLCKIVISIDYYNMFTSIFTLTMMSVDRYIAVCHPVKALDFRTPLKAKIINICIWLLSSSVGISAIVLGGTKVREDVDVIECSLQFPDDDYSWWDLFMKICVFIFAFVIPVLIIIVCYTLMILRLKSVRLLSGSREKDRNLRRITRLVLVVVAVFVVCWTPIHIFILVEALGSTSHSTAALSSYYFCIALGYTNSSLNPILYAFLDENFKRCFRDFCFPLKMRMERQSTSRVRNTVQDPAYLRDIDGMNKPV
In short: (§2)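 Filtration binding on cloned human receptor membranes (1 Unit/well), [125I]-Substance P for NK1 and [3H]-Diprenorphine for KOP, 1 h at room temperature. Filters PEI-presoaked, washed with cold 50 mM Tris-HCl pH 7.4, counted by scintillation; percent inhibition calculated, reference ligand defining non-specific binding.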

Human Melanocortin (MC3) = molecular target: T3, Human Melanocortin (MC3) (Homo sapiens, UniProt P41968); experiment: Radioligand binding, human melanocortin MC3 membranes, FlashPlate, [125I]-NDP-αMSH; conditions: compound at 10 μM; [125I]-NDP-αMSH
T3 construct: purchased Perkin Elmer Biosignal
T3 sequence (P41968 whole entry): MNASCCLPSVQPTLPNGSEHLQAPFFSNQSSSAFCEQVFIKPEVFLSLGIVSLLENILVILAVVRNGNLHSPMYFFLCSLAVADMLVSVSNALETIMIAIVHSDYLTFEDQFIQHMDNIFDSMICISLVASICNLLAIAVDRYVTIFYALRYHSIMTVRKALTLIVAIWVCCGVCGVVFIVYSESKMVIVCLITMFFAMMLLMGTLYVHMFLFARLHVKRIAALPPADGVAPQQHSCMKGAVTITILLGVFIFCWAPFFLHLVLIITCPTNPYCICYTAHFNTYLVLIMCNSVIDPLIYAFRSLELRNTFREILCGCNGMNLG
In short: as §1

Human Melanocortin (MC4) = molecular target: T4, Human Melanocortin (MC4) (Homo sapiens, UniProt P32245); experiment: Radioligand binding, human melanocortin MC4 membranes, FlashPlate, [125I]-NDP-αMSH; conditions: compound at 10 μM; [125I]-NDP-αMSH
T4 construct: purchased Perkin Elmer Biosignal
T4 sequence (P32245 whole entry): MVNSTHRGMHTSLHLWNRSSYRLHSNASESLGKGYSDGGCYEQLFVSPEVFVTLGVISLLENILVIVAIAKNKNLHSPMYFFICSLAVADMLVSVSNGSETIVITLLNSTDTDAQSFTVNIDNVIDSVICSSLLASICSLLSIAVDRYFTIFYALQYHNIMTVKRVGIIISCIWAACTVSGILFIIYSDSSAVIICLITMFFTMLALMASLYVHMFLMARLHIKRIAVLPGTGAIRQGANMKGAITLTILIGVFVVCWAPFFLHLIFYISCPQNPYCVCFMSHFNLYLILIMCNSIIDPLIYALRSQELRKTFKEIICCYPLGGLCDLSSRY
In short: as §1

Human melanocortin (MC5) = molecular target: T5, Human melanocortin (MC5) (Homo sapiens, UniProt P33032); experiment: Radioligand binding, human melanocortin MC5 membranes, FlashPlate, [125I]-NDP-αMSH; conditions: compound at 10 μM; [125I]-NDP-αMSH
T5 construct: purchased Perkin Elmer Biosignal
T5 sequence (P33032 whole entry): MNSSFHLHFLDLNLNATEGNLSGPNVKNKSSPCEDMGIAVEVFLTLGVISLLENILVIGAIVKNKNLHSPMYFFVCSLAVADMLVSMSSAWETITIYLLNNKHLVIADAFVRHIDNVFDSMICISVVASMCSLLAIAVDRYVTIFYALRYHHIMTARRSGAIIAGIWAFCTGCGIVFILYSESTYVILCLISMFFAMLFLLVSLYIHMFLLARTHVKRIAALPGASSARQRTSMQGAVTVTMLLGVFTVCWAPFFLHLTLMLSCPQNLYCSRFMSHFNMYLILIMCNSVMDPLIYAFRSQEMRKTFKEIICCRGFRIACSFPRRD
In short: as §1

[1] = molecular target: T6, Human melanin-concentrating hormone (MCH1) (Homo sapiens, UniProt Q99705); experiment: Radioligand binding, human melanin-concentrating hormone MCH1 membranes, FlashPlate, [125I]-S36057; conditions: compound at 10 μM; [125I]-S36057
T6 construct: purchased Perkin Elmer Biosignal
T6 sequence (Q99705 whole entry): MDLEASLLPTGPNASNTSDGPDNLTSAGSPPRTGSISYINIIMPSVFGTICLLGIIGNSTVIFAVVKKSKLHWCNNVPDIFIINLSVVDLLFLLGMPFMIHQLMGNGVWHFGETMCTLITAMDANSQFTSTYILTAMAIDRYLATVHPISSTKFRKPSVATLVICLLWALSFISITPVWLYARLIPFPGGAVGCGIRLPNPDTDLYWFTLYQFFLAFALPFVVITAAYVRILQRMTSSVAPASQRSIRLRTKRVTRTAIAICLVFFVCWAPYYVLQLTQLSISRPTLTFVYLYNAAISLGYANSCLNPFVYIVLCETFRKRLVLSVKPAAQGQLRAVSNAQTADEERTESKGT
In short: as §1

Human μ-opioid (MOP) = molecular target: T7, Human μ-opioid (MOP) (Homo sapiens, UniProt P35372); experiment: Radioligand binding, human μ-opioid (MOP) membranes, FlashPlate, [3H]-Naloxone; conditions: compound at 10 μM; [3H]-Naloxone
T7 construct: purchased Perkin Elmer Biosignal
T7 sequence (P35372 whole entry): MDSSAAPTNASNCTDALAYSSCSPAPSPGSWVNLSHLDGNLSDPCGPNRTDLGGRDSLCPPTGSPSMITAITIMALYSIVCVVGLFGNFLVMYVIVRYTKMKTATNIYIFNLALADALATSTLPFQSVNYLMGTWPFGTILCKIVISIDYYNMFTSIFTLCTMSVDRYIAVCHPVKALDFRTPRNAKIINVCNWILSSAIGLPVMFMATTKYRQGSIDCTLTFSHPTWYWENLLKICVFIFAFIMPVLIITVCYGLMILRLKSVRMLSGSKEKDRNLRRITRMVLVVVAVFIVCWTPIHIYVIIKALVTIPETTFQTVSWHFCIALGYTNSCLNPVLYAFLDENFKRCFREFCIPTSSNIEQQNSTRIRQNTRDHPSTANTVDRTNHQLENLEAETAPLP
In short: as §1

Human neurokinin (NK1) = molecular target: T8, Human neurokinin (NK1) (Homo sapiens, UniProt P25103); experiment: Radioligand binding, human neurokinin NK1 membranes, filtration, [125I]-Substance P; conditions: compound at 10 μM; [125I]-Substance P
T8 construct: purchased Perkin Elmer Biosignal
T8 sequence (P25103 whole entry): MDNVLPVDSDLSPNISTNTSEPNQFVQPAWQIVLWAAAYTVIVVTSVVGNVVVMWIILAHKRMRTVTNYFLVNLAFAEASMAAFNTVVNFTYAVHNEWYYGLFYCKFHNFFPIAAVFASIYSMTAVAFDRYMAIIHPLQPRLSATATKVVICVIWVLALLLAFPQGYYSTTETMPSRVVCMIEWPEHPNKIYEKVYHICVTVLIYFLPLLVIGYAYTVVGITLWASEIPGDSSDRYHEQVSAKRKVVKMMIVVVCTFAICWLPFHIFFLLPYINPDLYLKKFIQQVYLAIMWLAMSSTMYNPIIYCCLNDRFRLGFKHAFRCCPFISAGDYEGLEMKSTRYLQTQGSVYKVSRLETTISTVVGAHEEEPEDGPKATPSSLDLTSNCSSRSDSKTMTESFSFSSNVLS
In short: as §2

[2] = molecular target: T9, Human neuropeptide Y (NPY-Y1) (Homo sapiens, UniProt P25929); experiment: Radioligand binding, human neuropeptide Y NPY-Y1 membranes, FlashPlate, [125I]-PYY; conditions: compound at 10 μM; [125I]-PYY
T9 construct: purchased Perkin Elmer Biosignal
T9 sequence (P25929 1-384): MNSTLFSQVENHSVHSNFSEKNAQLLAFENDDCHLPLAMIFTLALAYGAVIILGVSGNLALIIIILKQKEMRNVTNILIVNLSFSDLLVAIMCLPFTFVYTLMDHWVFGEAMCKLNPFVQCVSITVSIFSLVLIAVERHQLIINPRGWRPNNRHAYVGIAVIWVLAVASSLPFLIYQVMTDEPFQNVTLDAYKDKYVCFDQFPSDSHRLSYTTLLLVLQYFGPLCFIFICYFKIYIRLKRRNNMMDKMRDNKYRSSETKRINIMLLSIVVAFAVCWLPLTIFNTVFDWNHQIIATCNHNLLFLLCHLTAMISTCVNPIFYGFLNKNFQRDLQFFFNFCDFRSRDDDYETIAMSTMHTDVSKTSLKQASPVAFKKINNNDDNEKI
In short: as §1

Human opioid (ORL1) = molecular target: T10, Human opioid (ORL1) (Homo sapiens, UniProt P41146); experiment: Radioligand binding, human opioid ORL1 membranes, FlashPlate, [125I]-Nociceptin; conditions: compound at 10 μM; [125I]-Nociceptin
T10 construct: purchased Perkin Elmer Biosignal
T10 sequence (P41146 whole entry): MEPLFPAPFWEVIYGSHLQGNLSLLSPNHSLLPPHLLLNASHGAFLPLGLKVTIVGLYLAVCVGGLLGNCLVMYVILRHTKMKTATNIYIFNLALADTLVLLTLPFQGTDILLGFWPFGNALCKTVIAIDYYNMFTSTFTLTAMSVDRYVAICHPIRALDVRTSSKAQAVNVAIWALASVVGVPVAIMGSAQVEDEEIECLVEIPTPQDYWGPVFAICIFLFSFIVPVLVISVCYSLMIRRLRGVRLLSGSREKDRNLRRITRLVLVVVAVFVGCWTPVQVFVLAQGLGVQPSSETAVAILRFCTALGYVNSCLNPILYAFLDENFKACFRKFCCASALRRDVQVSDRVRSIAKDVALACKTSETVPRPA
In short: as §1

Mouse urotensin (mUR2) = molecular target: T11, Mouse urotensin (mUR2) (Mus musculus, UniProt Q8VIH9); experiment: Radioligand binding, mouse urotensin mUR2 membranes, FlashPlate, [125I]-Urotensin II; conditions: compound at 10 μM; [125I]-Urotensin II
T11 construct: purchased Perkin Elmer Biosignal
T11 sequence (Q8VIH9 1-385): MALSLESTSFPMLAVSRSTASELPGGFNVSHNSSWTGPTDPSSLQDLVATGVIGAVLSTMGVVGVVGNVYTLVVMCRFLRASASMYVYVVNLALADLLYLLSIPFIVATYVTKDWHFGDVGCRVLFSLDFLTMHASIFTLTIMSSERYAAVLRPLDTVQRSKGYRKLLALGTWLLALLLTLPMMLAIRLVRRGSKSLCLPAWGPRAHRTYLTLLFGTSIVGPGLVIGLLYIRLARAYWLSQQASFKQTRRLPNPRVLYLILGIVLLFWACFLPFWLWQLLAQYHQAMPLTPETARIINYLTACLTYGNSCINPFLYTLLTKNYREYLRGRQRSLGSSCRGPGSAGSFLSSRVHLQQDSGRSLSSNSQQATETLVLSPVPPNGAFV
In short: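 Cloned mouse urotensin (mUR2) receptor membranes from Perkin Elmer Biosignal were immobilized in FlashPlate microplates using a proprietary coating. Each well got 19.5 μl buffer, then 0.5 μl of DMSO, reference ligand, or compound. Adding 5 μl of [125I]-Urotensin II, diluted to 5× final concentration in binding buffer, started binding. Plates were sealed with TopSeal-A and incubated 1 hour at room temperature in the dark. Wells were counted for 30 seconds each on a TopCount after a 60-second delay, and percentage inhibition was calculated.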

T1 sequence (P41143 whole entry): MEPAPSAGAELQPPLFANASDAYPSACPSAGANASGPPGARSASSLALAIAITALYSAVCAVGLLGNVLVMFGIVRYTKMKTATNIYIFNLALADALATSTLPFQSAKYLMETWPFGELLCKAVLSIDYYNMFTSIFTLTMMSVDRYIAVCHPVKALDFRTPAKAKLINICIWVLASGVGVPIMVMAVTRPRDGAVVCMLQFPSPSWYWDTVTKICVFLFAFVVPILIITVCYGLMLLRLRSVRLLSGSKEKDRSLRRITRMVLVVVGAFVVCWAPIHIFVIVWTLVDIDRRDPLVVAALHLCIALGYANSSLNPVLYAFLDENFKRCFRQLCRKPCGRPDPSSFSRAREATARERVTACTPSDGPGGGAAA

SMILES | A1 radioligand binding, percentage inhibition (Human δ-opioid (DOP)) | A2 radioligand binding, percentage inhibition (Human κ-Opioid (KOP)) | A3 radioligand binding, percentage inhibition (Human Melanocortin (MC3)) | A4 radioligand binding, percentage inhibition (Human Melanocortin (MC4)) | A5 radioligand binding, percentage inhibition (Human melanocortin (MC5)) | A6 radioligand binding, percentage inhibition [1] | A7 radioligand binding, percentage inhibition (Human μ-opioid (MOP)) | A8 radioligand binding, percentage inhibition (Human neurokinin (NK1)) | A9 radioligand binding, percentage inhibition [2] | A10 radioligand binding, percentage inhibition (Human opioid (ORL1)) | A11 radioligand binding, percentage inhibition (Mouse urotensin (mUR2)) | also measured
CO[C@H]1[C@H](O)[C@@H](COCc2ccc(Cl)cc2)OC(OCc2cccc(O)c2)[C@@H]1NC(=O)CCCNC(=N)N (stereo partly drawn) [compound 170] | − (“−” indicates less than 50% inhibition at 10 μM) | − (“−” indicates less than 50% inhibition at 10 μM) | − (“−” indicates less than 50% inhibition at 10 μM) | − (“−” indicates less than 50% inhibition at 10 μM) | + (“+” indicates greater than 50% inhibition at 10 μM) | − (“−” indicates less than 50% inhibition at 10 μM) | + (“+” indicates greater than 50% inhibition at 10 μM) | + (“+” indicates greater than 50% inhibition at 10 μM) | − (“−” indicates less than 50% inhibition at 10 μM) | − (“−” indicates less than 50% inhibition at 10 μM) | − (“−” indicates less than 50% inhibition at 10 μM) | –
CO[C@H]1[C@H](O)[C@@H](COCc2ccccc2)OC(OCCc2ccccc2)[C@@H]1NC(=O)CCCNC(=N)N (stereo partly drawn) [compound 118] | − (“−” indicates less than 50% inhibition at 10 μM) | − (“−” indicates less than 50% inhibition at 10 μM) | − (“−” indicates less than 50% inhibition at 10 μM) | − (“−” indicates less than 50% inhibition at 10 μM) | − (“−” indicates less than 50% inhibition at 10 μM) | − (“−” indicates less than 50% inhibition at 10 μM) | − (“−” indicates less than 50% inhibition at 10 μM) | + (“+” indicates greater than 50% inhibition at 10 μM) | − (“−” indicates less than 50% inhibition at 10 μM) | − (“−” indicates less than 50% inhibition at 10 μM) | − (“−” indicates less than 50% inhibition at 10 μM) | –
CSC1OC(COCc2ccc(Cl)cc2)C(O)C(OCc2ccc3ccccc3c2)C1NC(=O)CN (stereo not drawn) [compound 306] | – | – | – | – | – | – | – | – | – | – | – | A1: inhibition of radioligand binding, human δ-opioid (DOP) (Human δ-opioid (DOP)): − (“−” indicates less than 50% inhibition at 10 μM); A2: inhibition of radioligand binding, human κ-opioid (KOP) (Human κ-Opioid (KOP)): − (“−” indicates less than 50% inhibition at 10 μM); A3: inhibition of radioligand binding, human melanocortin (MC3) (Human Melanocortin (MC3)): − (“−” indicates less than 50% inhibition at 10 μM); A4: inhibition of radioligand binding, human melanocortin (MC4) (Human Melanocortin (MC4)): − (“−” indicates less than 50% inhibition at 10 μM); A5: inhibition of radioligand binding, human melanocortin (MC5) (Human melanocortin (MC5)): − (“−” indicates less than 50% inhibition at 10 μM); A6: inhibition of radioligand binding, human melanin-concentrating hormone (MCH1) [1]: − (“−” indicates less than 50% inhibition at 10 μM); A7: inhibition of radioligand binding, human μ-opioid (MOP) (Human μ-opioid (MOP)): − (“−” indicates less than 50% inhibition at 10 μM); A8: inhibition of radioligand binding, human neurokinin (NK1) (Human neurokinin (NK1)): + (“+” indicates greater than 50% inhibition at 10 μM); A9: inhibition of radioligand binding, human neuropeptide Y (NPY-Y1) [2]: − (“−” indicates less than 50% inhibition at 10 μM); A10: inhibition of radioligand binding, human opioid (ORL1) (Human opioid (ORL1)): − (“−” indicates less than 50% inhibition at 10 μM); A11: inhibition of radioligand binding, mouse urotensin (mUR2) (Mouse urotensin (mUR2)): − (“−” indicates less than 50% inhibition at 10 μM)
